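Cells were grown in 96-well plates and exposed to each compound for 48 hours at five concentrations; endpoints were interpolated linearly between bracketing concentrations, or set to the highest concentration if not reached. GI50: concentration for 50% inhibition of growth. The concentration for full growth arrest is given as TGI.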

Test systems include NCI/ADR-RES ovarian; HCT-116 colon; IGROV1 ovarian; HS 578T breast; OVCAR-3 ovarian; OVCAR-5 ovarian; EKVX NSCLC; SNB-75 CNS; SK-MEL-2 melanoma; NCI-H522 lung.
Holding throughout (test): DTP human tumour cell line panel, 48 h

As usually defined, the GI50 is the concentration giving 50% growth inhibition. What is called TGI is the concentration giving total growth inhibition. `COc1cc(/C=C/[N+](=O)[O-])cc(OC)c1OC`: the GI50 in the test on NCI/ADR-RES ovarian is 3.43 µM; in the test with HCT-116 colon it was 1.89 µM; with IGROV1 ovarian, 2.45 µM; in the test on HS 578T breast, 3.46 µM; in the test on OVCAR-3 ovarian it was 2.81 µM; in the test with OVCAR-5 ovarian, 2.09 µM. In addition, the GI50 in the test on EKVX NSCLC is 13.6 µM; in the test with SNB-75 CNS, 2.4 µM; in the test on SK-MEL-2 melanoma, 3.05 µM; in the test with NCI-H522 lung, 1.79 µM. Also, the TGI stood at 36.7 µM in the test on NCI/ADR-RES ovarian; 3.56 µM in the test with HCT-116 colon; 7.61 µM in the test on IGROV1 ovarian; 28.1 µM with HS 578T breast; 6.63 µM in the test with OVCAR-3 ovarian; 5.11 µM in the test with OVCAR-5 ovarian. Besides, the concentration for total growth inhibition (TGI) stood at 28.4 µM in the test with EKVX NSCLC, 6.11 µM in the test with SNB-75 CNS, 7.11 µM in the test on SK-MEL-2 melanoma and 3.57 µM with NCI-H522 lung.
Consider `COc1cccc(C2C(C#N)=C(N)Oc3c2ccc2ccccc32)c1` (stereo not drawn), for which the 50% growth inhibitory concentration (GI50) is under 0.01 µM in the test on NCI/ADR-RES ovarian; under 0.0128 µM in the test on HCT-116 colon; 0.0205 µM in the test on IGROV1 ovarian; under 0.0133 µM in the test with HS 578T breast; under 0.0144 µM in the test on OVCAR-3 ovarian; 0.0801 µM in the test on OVCAR-5 ovarian. Moreover, the 50% growth inhibitory concentration (GI50) in the test on EKVX NSCLC was 0.0617 µM; in the test on SNB-75 CNS, under 0.0151 µM; in the test on SK-MEL-2 melanoma it was 0.0588 µM; in the test on NCI-H522 lung, under 0.01 µM. Moreover, the TGI in the test on NCI/ADR-RES ovarian worked out at 0.391 µM; in the test on HCT-116 colon, 3.42 µM; with IGROV1 ovarian, 14.3 µM; in the test with HS 578T breast, 15.1 µM; in the test with OVCAR-3 ovarian it was 0.0439 µM; in the test on OVCAR-5 ovarian it was 19.8 µM. For the same compound, the values for the total growth inhibition concentration (TGI) in the test on EKVX NSCLC, in the test on SNB-75 CNS and with SK-MEL-2 melanoma were 19.6 µM, 15.1 µM and 16.5 µM, respectively.
As for `O=C1CCC(N2C(=O)c3cccc(NCCCC4CCN(CCNC(=O)c5cc6c(o5)C(=O)c5ccccc5C6=O)CC4)c3C2=O)C(=O)N1` (stereo not drawn), the GI50 with NCI/ADR-RES ovarian was 2.89 µM; in the test on HCT-116 colon, 0.465 µM; with IGROV1 ovarian, 0.576 µM; with HS 578T breast, 1.95 µM; in the test with OVCAR-3 ovarian, 0.218 µM; in the test with OVCAR-5 ovarian, 0.653 µM. Moreover, the GI50 is 1.5 µM in the test on EKVX NSCLC, 1.53 µM in the test with SNB-75 CNS, 1.27 µM with SK-MEL-2 melanoma and 1.5 µM in the test with NCI-H522 lung. In addition, the concentration for total growth inhibition (TGI) in the test with NCI/ADR-RES ovarian was found to be 14.7 µM; with HCT-116 colon it was 2.38 µM; in the test on IGROV1 ovarian it was 2.3 µM; in the test with HS 578T breast, 6.9 µM; with OVCAR-3 ovarian, 0.761 µM; in the test with OVCAR-5 ovarian, 2 µM. Moreover, the TGI in the test on EKVX NSCLC was 3.34 µM; in the test with SNB-75 CNS it was 2.88 µM; in the test on SK-MEL-2 melanoma it was 3.6 µM; in the test on NCI-H522 lung it was 3.27 µM.
For the compound `NCCC(=O)NC(Cc1cnc[nH]1)C(=O)O` (stereo not drawn), the total growth inhibition concentration (TGI) in the test on NCI/ADR-RES ovarian, in the test on HCT-116 colon, with IGROV1 ovarian, in the test with HS 578T breast, with OVCAR-3 ovarian and with OVCAR-5 ovarian was over 100 µM throughout. Also, the total growth inhibition concentration (TGI) in the test on EKVX NSCLC, with SNB-75 CNS, with SK-MEL-2 melanoma and with NCI-H522 lung was over 100 µM each time.
For the compound `O=C(Nc1ccccc1Cl)c1cccc(NC2=C(Cl)C(=O)N(Cc3ccccc3)C2=O)c1`, the GI50 in the test with NCI/ADR-RES ovarian is 46.4 µM; in the test on HCT-116 colon, 3.18 µM; in the test on IGROV1 ovarian, 0.549 µM; in the test on HS 578T breast, 30.2 µM; in the test with OVCAR-3 ovarian, 12.5 µM; with OVCAR-5 ovarian, over 100 µM. The GI50 in the test on EKVX NSCLC is 88.3 µM; in the test with SNB-75 CNS, 3.55 µM; in the test on NCI-H522 lung it was 7.72 µM. Also, the TGI is over 100 µM in the test with NCI/ADR-RES ovarian; 13.3 µM in the test with HCT-116 colon; 2.29 µM in the test with IGROV1 ovarian; over 100 µM with HS 578T breast; 33.3 µM in the test with OVCAR-3 ovarian; over 100 µM in the test with OVCAR-5 ovarian. Besides, the TGI is over 100 µM in the test with EKVX NSCLC, over 100 µM in the test on SNB-75 CNS, 6.38 µM with SK-MEL-2 melanoma and 31.1 µM with NCI-H522 lung.
Regarding `CCOC(=O)C1=C(C)N2C(=NC3=C(CCC/C3=C\c3ccc(Cl)cc3)C2c2ccc(Cl)cc2)S1` (stereo not drawn), the GI50 was 2.56 µM with NCI/ADR-RES ovarian; 1.4 µM in the test on HCT-116 colon; 3.11 µM in the test on IGROV1 ovarian; 5.33 µM in the test on HS 578T breast; 2.36 µM in the test on OVCAR-3 ovarian; 20.1 µM in the test with OVCAR-5 ovarian. In addition, the GI50 in the test on EKVX NSCLC was 3.37 µM; in the test with SNB-75 CNS, 9.11 µM; with SK-MEL-2 melanoma it was 19 µM; in the test with NCI-H522 lung, 3.84 µM. The TGI with NCI/ADR-RES ovarian is 7.04 µM; in the test on HCT-116 colon it was 2.7 µM; in the test with IGROV1 ovarian, 10.1 µM; in the test with HS 578T breast it was over 100 µM; in the test with OVCAR-3 ovarian, 5.61 µM; with OVCAR-5 ovarian, over 100 µM. Also, the TGI with EKVX NSCLC was found to be 46.8 µM; in the test with SNB-75 CNS it was 51.3 µM; in the test with SK-MEL-2 melanoma, 62.1 µM; in the test with NCI-H522 lung it was 17.8 µM.
Consider `COc1ccc2c(c1)/C(=C\c1c[nH]c3ccc(OC)cc13)C(=O)N2`, for which the GI50 in the test with NCI/ADR-RES ovarian was 2.65 µM; with HCT-116 colon it was 2.45 µM; with IGROV1 ovarian, 3.66 µM; with HS 578T breast, 2.33 µM; with OVCAR-3 ovarian, 3.65 µM; with OVCAR-5 ovarian, 3.43 µM. The GI50 is 3.01 µM with EKVX NSCLC, 1.94 µM in the test on SNB-75 CNS, 2.3 µM in the test on SK-MEL-2 melanoma and 2.27 µM in the test with NCI-H522 lung. For the same compound, the TGI was 8.25 µM in the test on NCI/ADR-RES ovarian; 10.6 µM with HCT-116 colon; 17.1 µM in the test on IGROV1 ovarian; 7.66 µM with HS 578T breast; 13.6 µM in the test on OVCAR-3 ovarian; 13.2 µM in the test on OVCAR-5 ovarian. Besides, the TGI amounted to 15.4 µM in the test with EKVX NSCLC, 9.22 µM with SNB-75 CNS, 6.27 µM in the test on SK-MEL-2 melanoma and 7.76 µM with NCI-H522 lung.

The record behind these values is PubChem BioAssay (NCI).
